Measurements as given in US10947284B2, “Fusion molecules” (Pieris Pharmaceuticals GMBH, priority 2015, dated 2021).
Starred links: 1 amine or outer side, 2 acyl side, 3 side chain; linkers in the order of their positions; H or OH if unused. Non-standard residues stand in square brackets, D forms with d. Residues, ends and D or L forms follow the SMILES beside them. *: point of attachment. X1 = O=C([C@@H]1CCNc2c(N[*:1])cc3cc(O)c(O)cc3[n+]21)[*:2]; dOrn(N5-OH,N5-CHO) = N[C@H](CCCN(O)C=O)C(=O)O; Butanoyl(2-oxo,4-COOH) = O=C(O)CCC(=O)C(=O)*; d(aThr) = C[C@@H](O)[C@@H](N)C(=O)O; X2 = O=C1[C@@H](N*)CCCN1[O-]; X3 = O=C1[C@@H](N*)CCCN1O; Orn = NCCC[C@H](N)C(=O)O

How the values were obtained:
[1] = target: hNGAL muteins from affinity optimization of SEQ ID NO: 56 (Homo sapiens, UniProt P80188); test: Solution binding ELISA
Chain of hNGAL muteins from affinity optimization of SEQ ID NO: 56 (P80188 21-198, stated change not applied): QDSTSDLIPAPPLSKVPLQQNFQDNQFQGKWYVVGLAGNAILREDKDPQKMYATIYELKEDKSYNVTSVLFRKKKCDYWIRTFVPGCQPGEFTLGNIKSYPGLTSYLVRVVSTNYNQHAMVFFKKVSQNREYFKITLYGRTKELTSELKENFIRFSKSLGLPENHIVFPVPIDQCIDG
Protocol: (§1) Solution binding of muteins was assayed by a “Solution binding ELISA”, the principle of which was as follows: a constant concentration of the tested mutein was incubated with variable concentrations of ligands (Pvd I s, sa, αKG+/−Fe/Pvd II s, sa, αKG+/−Fe/Pvd III s, sa, αKG+/−Fe/Pch+/−Fe) for 1 h. After this pre-incubation in solution, an aliquot of the mutein/ligand mixture was transferred to an ELISA plate with biotinylated Pvd I s (+Fe), Pvd II s (+Fe), Pvd III s (+Fe) or Pch immobilized via Neutravidin to measure the remaining concentration of free muteins. The concentration of free (non ligand-bound) muteins was determined via a quantitative ELISA setup.
(§2) In detail, a 384-well plate suitable for fluorescence measurements (Greiner FLUOTRAC™ 600, black flat bottom, high-binding) was coated with 20 μl of Neutravidin at a concentration of 5 μg/ml in PBS overnight at 4 C. After washing, the Neutravidin-coated wells were blocked with 100 μl blocking buffer containing 0.1% Tween 20 and 2% BSA (PBS-T/BSA) for 1 h at room temperature.
(§3) A fixed concentration of muteins was incubated in solution with varying concentrations of ligand (Pvd I s, sa, αKG+/−Fe/Pvd II s, sa, αKG+/−Fe/Pvd III s, sa, αKG+/−Fe/Pch+/−Fe), using a suitable starting concentration which was serially diluted at a 1:3 ratio down to the picomolar range in PBS-T/BSA. […] To allow for transformation of ELISA readout results into absolute free mutein concentrations, a standard curve containing varying concentrations of muteins was prepared in PBS-T/BSA and incubated for 20 min on the same ELISA plate as well.
(§4) The residual supernatants were discarded and 20 μl HRP-labeled anti-hNGAL antibody was added at a predetermined optimal concentration in PBS-T/BSA and incubated for 1 h at RT. […] The fluorescence intensity of every well on the plate was read using a fluorescence microplate reader (Tecan or Molecular Devices). To evaluate the data, free mutein concentration, c(mutein)free, was calculated based on the standard curve results, and plotted versus ligand concentration, c(Ligand). […]

[2] = target: hNGAL muteins from affinity optimization of SEQ ID NO: 55 (Homo sapiens, UniProt P80188); test: Solution binding ELISA
Chain of hNGAL muteins from affinity optimization of SEQ ID NO: 55 (P80188 21-198, stated change not applied): as above
Protocol: as §1, §2, §3, §4

[3] = target: lipocalin negative control SEQ ID NO: 64 (Homo sapiens, UniProt P80188, C107S/Q48H); test: Surface plasmon resonance (Biacore T200); assay type: binding; conditions: SPR, analyte at 200 nM
Chain of lipocalin negative control SEQ ID NO: 64 (P80188 21-198 Q48H/C107S): as the sequence (P80188 21-198, stated change not applied) above, with Q28H, C87S counted along it
Protocol: (§5) In a Surface Plasmon Resonance (SPR) based assay a Biacore T200 instrument (GE Healthcare) was used to measure the binding affinity of muteins to pyoverdine I succinyl, -succinamide, -α-ketoglutaryl with complexed iron ion or to pyoverdine II succinyl, -succinamide, -α-ketoglutaryl with complexed iron ion or to pyoverdine III succinyl, -succinamide, -α-ketoglutaryl with complexed iron ion. Muteins selected for binding to pyoverdines and negative control (SEQ ID NO: 64) were biotinylated for 2 h at room temperature applying an appropriate excess of EZ-Link NHS-PEG4-Biotin (Thermo, Cat #21329) followed by separation of non-reacted Biotin using a Zebra Spin Desalting Plate (Thermo, Cat #21329) according to the manufactures instructions.
In the SPR affinity assay, biotinylated muteins and negative control were captured on a sensor chip CAP using the Biotin CAPture Kit (GE Healthcare): Sensor Chip CAP is pre-immobilized with an ssDNA oligo. Undiluted Biotin CAPture Reagent (streptavidin conjugated with the complementary ss-DNA oligo) was applied at a flow rate of 2 μl/min for 300 s. Subsequently, 1 μg/ml to 100 μg/mL of biotinylated muteins or negative control were applied for 300 s at a flow rate of 5 μl/min. The reference channel was loaded with Biotin CAPture Reagent only.
Applying a flow rate of 30 μl/min, a single cycle or multi cycle kinetics approach was used with a sample contact time of 120-180 s and a dissociation time of 900-2400 s. […] After ligand immobilization, for analysis using single cycle kinetics all 4-5 concentrations of Pvd were applied consecutively in ascending order before the dissociation was monitored. For analysis using multi cycle kinetics 4 dilutions of Pvd were applied, each followed a dissociation phase. All measurements were performed at 25° C. […] Data were evaluated with Biacore T200 Evaluation software (V 1.0). Double referencing was used. A 1:1 Binding model was used to fit the raw data.
Subsequently, 5 μg/mL of mutein or the negative control solution in 10 mM acetate pH 4.0 was applied at a flow rate of 10 μl/min until a high immobilization level of approximately 2000 RU was achieved. Residual activated groups were quenched with ethanolamine. The reference channels were treated with EDC/NHS following ethanolamine (blank immobilization).
In the SPR affinity assay, biotinylated muteins and negative control were captured on a sensor chip CAP using the Biotin CAPture Kit (GE Healthcare), wherein the Sensor Chip CAP is pre-immobilized with an ssDNA oligo. Undiluted Biotin CAPture Reagent (streptavidin conjugated with the complementary ss-DNA oligo) was applied at a flow rate of 2 μl/min for 300 s. Subsequently, 20 μg/ml to 100 μg/mL of biotinylated muteins or fusion molecule negative control were applied for 300 s at a flow rate of 5 μl/min. The reference channel was loaded with Biotin CAPture Reagent only. To determine the binding affinity, four dilutions of the respective Pvd were prepared in HBS-EP+ buffer (GE Healthcare) and applied to the chip surface. Applying a flow rate of 30 μl/min, a single cycle kinetics approach was used with a sample contact time of 180 s and a dissociation time of 1800-2400 s. […] After ligand immobilization, the four concentrations of Pvd were applied consecutively in ascending order before the dissociation was monitored. All measurements were performed at 25° C. […] Data were evaluated with Biacore T200 Evaluation software (V 1.0). Double referencing was preformed. A 1:1 binding model was used to fit the raw data.

[4] = target: T1, hNGAL (human lipocalin 2, parent wild type SEQ ID NO: 1) mutein SEQ ID NO: 57 (Homo sapiens, UniProt P80188, A60Y/C107S/D97R/I61W/K145L/K154N/K93R/L123Q/L56V/L90R/N116P/Q48H/Q69A/R101W/R92W/S147R/S88D/W99D/Y120E/Y126R/Y152A); test: Solution binding ELISA
T1 construct: made in house; host or cells: E. coli
T1 sequence (P80188 21-198 with the stated changes): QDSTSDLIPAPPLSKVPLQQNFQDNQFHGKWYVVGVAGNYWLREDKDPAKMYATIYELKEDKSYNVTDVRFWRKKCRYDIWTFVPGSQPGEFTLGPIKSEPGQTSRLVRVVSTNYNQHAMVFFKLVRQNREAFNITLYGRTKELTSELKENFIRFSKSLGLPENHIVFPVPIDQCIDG
Protocol: (§6) The residual supernatants were discarded and 20 μl HRP-labeled anti-hNGAL antibody was added at a predetermined optimal concentration in PBS-T/BSA and incubated for 1 h at RT. […] After washing, 20 μl fluorogenic HRP substrate (QuantaBlu, Thermo) was added to each well, and the reaction was allowed to proceed for 15 to 60 minutes. The fluorescence intensity of every well on the plate was read using a fluorescence microplate reader (Tecan or Molecular Devices). […] Curve fitting was performed using GraphPad Prism 4 software.

[5] = target: T2, hNGAL (human lipocalin 2, parent wild type SEQ ID NO: 1) mutein SEQ ID NO: 56 (Homo sapiens, UniProt P80188, A60F/C107S/D97A/I61H/K145G/K154V/K93A/L123M/L56M/L90P/N116A/Q48H/Q69S/R101I/R92W/S147W/S88H/W99K/Y120G/Y126W/Y152T/Y72P); test: Solution binding ELISA
T2 construct: made in house; host or cells: E. coli
T2 sequence (P80188 21-198 with the stated changes): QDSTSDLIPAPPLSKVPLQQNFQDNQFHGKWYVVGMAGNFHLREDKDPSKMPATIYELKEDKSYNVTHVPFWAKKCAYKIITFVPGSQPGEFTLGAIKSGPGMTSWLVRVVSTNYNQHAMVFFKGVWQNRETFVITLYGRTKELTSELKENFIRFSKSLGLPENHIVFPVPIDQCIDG
Protocol: as §6

[6] = target: T3, hNGAL (human lipocalin 2, parent wild type SEQ ID NO: 1) mutein SEQ ID NO: 20 (Homo sapiens, UniProt P80188, A60T/C107S/D97H/K145I/K154W/K93M/L123T/L90R/N116I/Q48H/Q69G/R101E/R92I/S147R/S88D/W99Y/Y120N/Y126Q/Y152M/Y72N); conditions: solution binding ELISA
T3 construct: made in house; host or cells: E. coli
T3 sequence (P80188 other isoform, or with tags, fused parts or gaps with the stated changes): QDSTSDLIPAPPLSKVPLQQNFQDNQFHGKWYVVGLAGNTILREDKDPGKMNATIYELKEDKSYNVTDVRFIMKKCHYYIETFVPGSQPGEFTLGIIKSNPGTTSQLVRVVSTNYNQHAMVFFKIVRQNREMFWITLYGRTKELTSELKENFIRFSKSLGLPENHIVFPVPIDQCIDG
Protocol: as §6

[7] = target: T4, hNGAL (human lipocalin 2, parent wild type SEQ ID NO: 1) mutein SEQ ID NO: 30 (Homo sapiens, UniProt P80188, A60T/C107S/D97H/K145I/K154W/K93F/L123M/L56V/L90R/Q48H/Q69G/R101D/R92I/S147R/S88D/W99Y/Y126Q/Y152I/Y72N); test: Solution binding ELISA
T4 construct: made in house; host or cells: E. coli
T4 sequence (P80188 other isoform, or with tags, fused parts or gaps with the stated changes): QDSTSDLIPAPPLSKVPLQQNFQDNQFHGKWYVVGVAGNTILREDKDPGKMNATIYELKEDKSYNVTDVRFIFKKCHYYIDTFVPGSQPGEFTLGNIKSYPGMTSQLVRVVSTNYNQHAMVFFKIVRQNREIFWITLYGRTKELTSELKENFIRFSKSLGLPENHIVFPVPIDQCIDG
Protocol: as §6

[8] = target: T5, hNGAL (human lipocalin 2, parent wild type SEQ ID NO: 1) mutein SEQ ID NO: 34 (Homo sapiens, UniProt P80188, A60T/C107S/D97H/K145I/K154W/K93R/L123T/L56V/L90R/N85D/Q48H/Q69G/R101D/R92I/S147R/S88D/T74A/W99Y/Y126Q/Y152I/Y72N); test: Solution binding ELISA; conditions: Example 5
T5 construct: made in house; host or cells: E. coli
T5 sequence (P80188 other isoform, or with tags, fused parts or gaps with the stated changes): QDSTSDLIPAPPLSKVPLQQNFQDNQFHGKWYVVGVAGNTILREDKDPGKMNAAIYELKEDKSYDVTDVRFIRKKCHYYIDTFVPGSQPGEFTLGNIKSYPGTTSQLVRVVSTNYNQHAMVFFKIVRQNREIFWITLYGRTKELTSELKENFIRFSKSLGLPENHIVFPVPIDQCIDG
Protocol: as §6

[9] = target: T6, hNGAL (human lipocalin 2, parent wild type SEQ ID NO: 1) mutein SEQ ID NO: 28 (Homo sapiens, UniProt P80188, A60T/C107S/D97N/E64D/I61V/K154W/L123Q/L56V/L90R/N116K/Q48H/Q69G/R101E/R92H/S147K/S88E/W99F/Y120H/Y126M/Y152A/Y72P); test: Solution binding ELISA
T6 construct: made in house; host or cells: E. coli
T6 sequence (P80188 other isoform, or with tags, fused parts or gaps with the stated changes): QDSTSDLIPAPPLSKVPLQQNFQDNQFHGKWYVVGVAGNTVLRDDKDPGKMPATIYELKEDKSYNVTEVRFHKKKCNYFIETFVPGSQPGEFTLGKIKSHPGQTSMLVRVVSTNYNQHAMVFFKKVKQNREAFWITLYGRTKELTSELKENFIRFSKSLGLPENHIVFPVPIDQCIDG
Protocol: as §6

[10] = target: T7, hNGAL (human lipocalin 2, parent wild type SEQ ID NO: 1) mutein SEQ ID NO: 19 (Homo sapiens, UniProt P80188, A60E/C107S/D97N/I61V/K154W/K93N/L123Q/L56V/L90R/Q48H/Q69G/R101E/R92H/S147K/S88E/W99S/Y120N/Y126M/Y152G/Y72P); test: Solution binding ELISA
T7 construct: made in house; host or cells: E. coli
T7 sequence (P80188 other isoform, or with tags, fused parts or gaps with the stated changes): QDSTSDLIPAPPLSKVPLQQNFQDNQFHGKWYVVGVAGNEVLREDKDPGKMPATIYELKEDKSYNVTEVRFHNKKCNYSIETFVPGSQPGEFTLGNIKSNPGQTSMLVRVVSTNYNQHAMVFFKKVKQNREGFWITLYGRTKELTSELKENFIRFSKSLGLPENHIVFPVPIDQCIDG
Protocol: as §6

[11] = target: T8, hNGAL (human lipocalin 2, parent wild type SEQ ID NO: 1) mutein SEQ ID NO: 29 (Homo sapiens, UniProt P80188, A60Q/C107S/D97N/E64D/I61V/K154W/K93N/L123H/L56V/L90R/Q48H/Q69G/R101E/R92H/S147K/S88E/Y120N/Y126M/Y152G/Y72P); test: Solution binding ELISA
T8 construct: made in house; host or cells: E. coli
T8 sequence (P80188 other isoform, or with tags, fused parts or gaps with the stated changes): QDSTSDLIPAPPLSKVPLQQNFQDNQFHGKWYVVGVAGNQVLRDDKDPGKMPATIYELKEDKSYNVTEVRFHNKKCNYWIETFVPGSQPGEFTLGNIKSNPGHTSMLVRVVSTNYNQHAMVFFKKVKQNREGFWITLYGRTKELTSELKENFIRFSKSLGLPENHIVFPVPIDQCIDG
Protocol: as §6

[12] = target: T9, hNGAL (human lipocalin 2, parent wild type SEQ ID NO: 1) mutein SEQ ID NO: 31 (Homo sapiens, UniProt P80188, A60T/C107S/D97H/K145I/K154W/K93R/L123T/L56V/L90R/Q48H/Q69G/R101D/R92I/S147R/S88D/W99Y/Y126Q/Y152I/Y72N); test: Solution binding ELISA
T9 construct: made in house; host or cells: E. coli
T9 sequence (P80188 other isoform, or with tags, fused parts or gaps with the stated changes): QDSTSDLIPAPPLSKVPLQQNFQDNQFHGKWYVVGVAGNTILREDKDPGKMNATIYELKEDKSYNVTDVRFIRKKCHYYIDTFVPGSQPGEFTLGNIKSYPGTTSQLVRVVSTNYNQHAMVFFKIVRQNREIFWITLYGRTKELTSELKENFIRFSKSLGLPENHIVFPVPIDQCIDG
Protocol: as §6

[13] = target: T10, Fusion molecule SEQ ID NO: 134 (hNGAL muteins SEQ ID NOs: 36, 16, 53 and 62) (Homo sapiens, UniProt P80188, A60T/C107S/D97H, form not given/K145I/K154W/K93R/L123T/L56V/L90R/N85D/Q69G/R101D/R92I/S147R/S88D/T74A/W99Y/Y126Q/Y152I/Y72N); test: Solution binding ELISA; conditions: binding to target in solution, tracer 0.1 nM, Table 11
T10 construct: made in house
T10 sequence (P80188 with tags, fused parts or gaps with the stated changes, form open): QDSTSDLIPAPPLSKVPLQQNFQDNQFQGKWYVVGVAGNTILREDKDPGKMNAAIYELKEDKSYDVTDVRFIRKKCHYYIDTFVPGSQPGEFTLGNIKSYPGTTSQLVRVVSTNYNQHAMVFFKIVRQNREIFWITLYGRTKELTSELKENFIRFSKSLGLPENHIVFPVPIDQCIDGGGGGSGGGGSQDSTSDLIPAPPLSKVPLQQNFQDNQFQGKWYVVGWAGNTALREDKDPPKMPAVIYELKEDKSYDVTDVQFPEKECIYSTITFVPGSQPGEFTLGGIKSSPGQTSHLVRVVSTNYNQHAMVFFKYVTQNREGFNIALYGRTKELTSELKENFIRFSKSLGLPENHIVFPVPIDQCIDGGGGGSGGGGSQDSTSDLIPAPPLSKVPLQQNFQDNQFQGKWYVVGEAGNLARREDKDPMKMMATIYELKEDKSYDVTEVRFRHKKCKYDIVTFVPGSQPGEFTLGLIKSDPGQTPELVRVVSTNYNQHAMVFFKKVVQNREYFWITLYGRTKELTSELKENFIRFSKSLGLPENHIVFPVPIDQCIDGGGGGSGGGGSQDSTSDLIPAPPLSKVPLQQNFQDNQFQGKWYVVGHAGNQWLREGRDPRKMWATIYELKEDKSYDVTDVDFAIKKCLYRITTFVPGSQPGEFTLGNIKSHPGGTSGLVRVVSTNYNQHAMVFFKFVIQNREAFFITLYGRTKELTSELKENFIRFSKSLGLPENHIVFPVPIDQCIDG

[14] = target: T11, Fusion molecule SEQ ID NO: 134 (hNGAL muteins SEQ ID NOs: 36, 16, 53 and 62) (Homo sapiens, UniProt P80188, A60T/C107S/D97H, form not given/K145I/K154W/K93R/L123T/L56V/L90R/N85D/Q69G/R101D/R92I/S147R/S88D/T74A/W99Y/Y126Q/Y152I/Y72N); test: Surface plasmon resonance (Biacore T200); assay type: binding; conditions: Biacore, 25° C., Table 13
T11 construct: made in house; host or cells: HEK293
T11 sequence (P80188 with tags, fused parts or gaps with the stated changes, form open): as above

[15] = target: T12, hNGAL (human lipocalin 2, parent wild type SEQ ID NO: 1) mutein SEQ ID NO: 26 (Homo sapiens, UniProt P80188, A60E/C107S/D97N/E64D/I61V/K145N/K154W/K93N/L123V/L56V/L90R/N116K/Q48H/Q69G/R101E/R92H/S147K/S88E/W99S/Y120N/Y126M/Y152G/Y72P); test: Solution binding ELISA
T12 construct: made in house; host or cells: E. coli
T12 sequence (P80188 other isoform, or with tags, fused parts or gaps with the stated changes): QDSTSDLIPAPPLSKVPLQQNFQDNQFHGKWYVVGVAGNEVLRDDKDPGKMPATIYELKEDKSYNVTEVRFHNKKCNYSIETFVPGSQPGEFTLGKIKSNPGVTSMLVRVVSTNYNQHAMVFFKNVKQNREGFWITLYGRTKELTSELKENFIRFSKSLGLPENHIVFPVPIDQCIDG
Protocol: as §6

[16] = target: T13, hNGAL (human lipocalin 2, parent wild type SEQ ID NO: 1) mutein SEQ ID NO: 27 (Homo sapiens, UniProt P80188, A60T/C107S/D97N/E64D/I61V/K154W/K93N/L123Q/L56V/L90R/Q48H/Q69G/R101E/R92H/S147K/S88E/W99S/Y126M/Y152V/Y72P); test: Solution binding ELISA
T13 construct: made in house; host or cells: E. coli
T13 sequence (P80188 other isoform, or with tags, fused parts or gaps with the stated changes): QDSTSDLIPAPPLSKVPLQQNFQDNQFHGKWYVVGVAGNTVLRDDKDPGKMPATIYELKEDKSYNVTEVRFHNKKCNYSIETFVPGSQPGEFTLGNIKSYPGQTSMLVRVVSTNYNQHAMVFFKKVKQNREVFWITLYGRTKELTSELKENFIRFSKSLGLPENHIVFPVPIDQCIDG
Protocol: as §6

[17] = target: T14, hNGAL (human lipocalin 2, parent wild type SEQ ID NO: 1) mutein SEQ ID NO: 36 (Homo sapiens, UniProt P80188, A60T/C107S/D97H/K145I/K154W/K93R/L123T/L56V/L90R/N85D/Q69G/R101D/R92I/S147R/S88D/T74A/W99Y/Y126Q/Y152I/Y72N); test: Surface plasmon resonance (Biacore T200); assay type: binding; conditions: SPR, 25° C., Table 2B
T14 construct: made in house; host or cells: E. coli
T14 sequence (P80188 21-198 with the stated changes): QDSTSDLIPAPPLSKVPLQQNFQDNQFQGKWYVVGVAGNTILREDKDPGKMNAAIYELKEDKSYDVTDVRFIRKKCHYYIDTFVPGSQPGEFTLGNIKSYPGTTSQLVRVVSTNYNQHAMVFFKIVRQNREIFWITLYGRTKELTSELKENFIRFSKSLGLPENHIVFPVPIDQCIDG
Protocol: as §5
In the SPR affinity assay, biotinylated muteins and negative control were captured on a sensor chip CAP using the Biotin CAPture Kit (GE Healthcare): Sensor Chip CAP is pre-immobilized with an ssDNA oligo. Undiluted Biotin CAPture Reagent (streptavidin conjugated with the complementary ss-DNA oligo) was applied at a flow rate of 2 μl/min for 300 s. Subsequently, 1 μg/ml to 100 μg/mL of biotinylated muteins or negative control were applied for 300 s at a flow rate of 5 μl/min. […]
Applying a flow rate of 30 μl/min, a single cycle or multi cycle kinetics approach was used with a sample contact time of 120-180 s and a dissociation time of 900-2400 s. […] After ligand immobilization, for analysis using single cycle kinetics all 4-5 concentrations of Pvd were applied consecutively in ascending order before the dissociation was monitored. […] Data were evaluated with Biacore T200 Evaluation software (V 1.0). […]
In the SPR affinity assay, biotinylated muteins and negative control were captured on a sensor chip CAP using the Biotin CAPture Kit (GE Healthcare), wherein the Sensor Chip CAP is pre-immobilized with an ssDNA oligo. […] After ligand immobilization, the four concentrations of Pvd were applied consecutively in ascending order before the dissociation was monitored. […] Data were evaluated with Biacore T200 Evaluation software (V 1.0). […]

Row | SMILES | affinity (in words) [1] | affinity (in words) [2] | binding [3] | affinity (in words) [4] | affinity (in words) [5] | improved affinity ([2]; compared with SEQ ID NO: 55) | IC50 [6] [nM] | IC50 [7] [nM] | IC50 [8] [nM] | IC50 [9] [nM] | IC50 [10] [nM] | IC50 [11] [nM] | IC50 [12] [nM] | IC50 [13] [nM] | Kd [14] [nM] | IC50 [15] [nM] | IC50 [16] [nM] | Kd [17] [nM] | koff [17] [s⁻¹] | kon [17] [M⁻¹ s⁻¹]
1 | CN1C([C@H]2CSC(c3ccccc3O)=N2)SC[C@H]1C(=O)O.[Fe+3] (stereo partly drawn) [pch (+Fe), pyochelin] | no or weak affinity | single digit nM affinity | absence of binding | two- to three digit nM affinity | two- to three digit nM affinity |  |  |  |  |  |  |  |  |  |  |  |  |  |  | 
2 | CN1C([C@H]2CSC(c3ccccc3O)=N2)SC[C@H]1C(=O)O (stereo partly drawn) [pch (−Fe), pyochelin] |  |  |  | weak affinity or not at all | weak affinity or not at all | more than 75 fold |  |  |  |  |  |  |  |  |  |  |  |  |  | 
3 | C[C@@H](O)[C@@H](NC(=O)CNC(=O)[C@H](CCCN)NC(=O)[C@@H](CCCN(O)C=O)NC(=O)[C@@H](CO)NC(=O)[C@@H]1CCNc2c(NC(=O)C(=O)CCC(=O)O)cc3cc(O)c(O)cc3[n+]21)C(=O)N[C@@H](CO)C(=O)N[C@H]1CCCN(O)C1=O [Pvd II aKG (−Fe), Pvd type II α-ketoglutaryl] ({Butanoyl(2-oxo,4-COOH)}-[X1][dS][dOrn(N5-OH,N5-CHO)][Orn]G[d(aThr)]S-X3) |  |  |  |  |  |  | 89 | 2.85 | 1.2 | 1.65 | 34 | 1.6 | 0.64 | 0.81 | 3.27 | 0.75 | 1.4 |  |  | 
4 | C[C@@H](O)[C@@H](NC(=O)CNC(=O)[C@H](CCCN)NC(=O)[C@@H](CCCN([O-])C=O)NC(=O)[C@@H](CO)NC(=O)[C@@H]1CCNc2c(NC(=O)C(=O)CCC(=O)O)cc3cc([O-])c([O-])cc3[n+]21)C(=O)N[C@@H](CO)C(=O)N[C@H]1CCCN([O-])C1=O.[Fe+3] [Pvd II aKG (+Fe), Pvd type II α-ketoglutaryl] ({Butanoyl(2-oxo,4-COOH)}-[X1][dS][dOrn(N5-OH,N5-CHO)][Orn]G[d(aThr)]S-X2) |  |  |  |  |  |  | 85 | 3 | 1.6 | 2.25 | 21 | 1.9 | 1.1 | 0.88 | 1.19 | 1.3 | 1.97 | 1.97 | 5.62e-05 | 28600
